The source made the active and inactive calls. The rule behind the calls is not given here.
Key:
[1] = Cytotoxicity against mouse MPC-5 cells assessed as inhibition of cell growth at 50 uM incubated for 48 hrs by MTT assay; assay type: toxicity, cell-based; conditions: mpc-5, 48 h
NCI/ADR-RES [2] = experiment: Reversal of P-gp-mediated multidrug resistance in human NCI-ADR-RES cells assessed as change in ABCB1 expression level at 1 to 10 uM incubated for 24 hrs in presence of doxorubicin by Western blot analysis; assay type: functional, cell-based; conditions: dose 1-10 µM
NCI/ADR-RES [3] = experiment: Induction of apoptosis in human NCI-ADR-RES cells assessed as necrotic cells at 3 uM incubated for 48 hrs by Annexin V-FITC and DAPI staining based flow cytometry (Rvb= 0.55 %); assay type: functional
HCT-8 [4] = experiment: Antiproliferative activity against human Taxol resistant HCT-8 cells assessed as inhibition of cell growth at 50 uM incubated for 48 hrs by MTT assay; assay type: functional, cell-based
A549 = experiment: Antiproliferative activity against human A549 cells assessed as inhibition of cell growth at 50 uM incubated for 48 hrs by MTT assay; assay type: functional, cell-based
NCI-ADR-RES = experiment: Inhibition of PI3K/AKT signaling pathway in human NCI-ADR-RES cells assessed as increase in Caspase-3 level at 3 uM incubated for 24 to 48 hrs in presence of doxorubicin by Western blot analysis; assay type: cell-based; conditions: time 24-48 hrs
HCT-8 [5] = experiment: Antiproliferative activity against human HCT-8 cells assessed as inhibition of cell growth at 50 uM incubated for 48 hrs by MTT assay; assay type: functional, cell-based
NCI/ADR-RES [6] = experiment: Induction of apoptosis in human NCI-ADR-RES cells assessed as viable cells at 3 uM incubated for 24 hrs by Annexin V-FITC and DAPI staining based flow cytometry (Rvb= 97.9 %); assay type: functional; conditions: read-out: Activity
NCI/ADR-RES [7] = experiment: Reversal of P-gp-mediated multidrug resistance in human NCI-ADR-RES cells assessed as change in ABCB1 expression level at 1 to 10 uM incubated for 24 hrs by Western blot analysis; assay type: functional, cell-based; conditions: dose 1-10 µM
NCI/ADR-RES [8] = experiment: Reversal fold, ratio of doxorubicin IC50 to doxorubicin IC50 in presence of 10 uM test compound for reversal of P-gp-mediated multidrug resistance in human NCI-ADR-RES cells incubated for 48 hrs by MTT assay; assay type: functional
NCI/ADR-RES [9] = experiment: Induction of apoptosis in human NCI-ADR-RES cells assessed as early apoptotic cells at 3 uM incubated for 48 hrs by Annexin V-FITC and DAPI staining based flow cytometry (Rvb= 0.89 %); assay type: functional
NCI/ADR-RES [10] = experiment: Induction of apoptosis in human NCI-ADR-RES cells assessed as late apoptotic cells at 8 uM incubated for 24 hrs in presence of doxorubicin by Annexin V-FITC and DAPI staining based flow cytometry (Rvb= 0.66 %); assay type: functional
L02 = experiment: Cytotoxicity against human L02 cells assessed as inhibition of cell growth at 50 uM incubated for 48 hrs by MTT assay; assay type: toxicity, cell-based; conditions: l02, 48 h

In the case of C=C1[C@H](OC(C)=O)[C@@H](OC(C)=O)[C@@H](OC(C)=O)C(C)(C)/C=C/[C@H](C)[C@H](OC(=O)c2ccccc2)[C@@]2(O)C[C@@](C)(OC(=O)C(C)(C)C)[C@H](OC(C)=O)[C@@H]2[C@H]1OCC(C)C, the Activity [1] is reported as “Non-Toxic”, the Activity (NCI/ADR-RES [2]) is reported as “Active” and the Activity (NCI/ADR-RES [3]) is reported as 0.43%. The Activity (HCT-8 [4]) was “inactive”, the Activity (A549) was “inactive” and the inhibition (NCI-ADR-RES) was “Active”. For the same compound, the Activity (HCT-8 [5]) was “inactive”, the viability at 3 µM (NCI/ADR-RES [6]) was 97.5% and the Activity (NCI/ADR-RES [7]) was “inactive”. The “Ratio IC50” value (NCI/ADR-RES [8]) was 116.6, the Activity (NCI/ADR-RES [9]) was 0.69% and the Activity (NCI/ADR-RES [10]) was 1.56%. For the same compound, the Activity (L02) was “Non-Toxic”.
